Source: US20070105810A1, “THERAPEUTICS” (priority 2003, published 2007)

Experiments:
[1] = tested on: myelin-basic protein (MBP) specific, CD4-positive rat T cell blasts; assay: In vitro toxicity assay on T cell blasts; assay type: cell-based
Procedure: Resting MBP-GFP Tcells were plated in 96-wells (5×10^4/well). Substances to test were added at different concentration to the cells and incubated for 1 h.
Cells stimulated by the addition of thymocytes (1.5×10^6/well) and MBP.
Absolute numbers of MBP-GFP T cells were determined by quantitative cytofluorometrical analysis after 24 and 48 hours (FACS-Calibur BektonDickinson).
Activated MBP-GFP Tcells were also incubated with different concentration of substances to test and absolute numbers of MBP-GFP T cells were determined by quantitative cytofluorometrical analysis after 24 and 48 hours (FACS-Calibur BektonDickinson).
Cells were stimulated in presence of MBP-pulsed irradiated APCs and increasing concentrations of BZ194. After 48 h cells were collected for cytofluorometric cell count A and RNA extraction was performed for quantitative PCR analysis (IL2) B. Effect of BZ194 on pre-activated T cell blasts C. Amplification of MBP-specific T cells which had been incubated before in the presence of DMSO or 0.5 mM or 1 mM BZ194 D.

[2] = tested on: NAADP/Ca2+ signalling in Jurkat T cells; assay: Ca2+ signalling evoked by microinjection of NAADP in Jurkat T cells; assay type: cell-based, human; details: for NAADP-mediated Ca2+ signalling: T-lymphocytes, summary statement
Procedure: NAADP (final concentration 100 nM), IP3 (final concentration 4 μM), and BZ52 (final concentration 1 mM) were injected into single Jurkat T cells while [Ca^2+]i was analyzed by Ca^2+ imaging. Data are presented as mean±SEM (n=4 to 13).
Effect of NAADP-microinjection and co-injection with BZ52 (1 mM) on [Ca^2+]i in human Jurkat T-Lymphocytes. Upper panel: microinjection of 100 nM NAADP (arrow), middle panel: microinjection of the vehicle buffer (arrow), lower panel: co-microinjection of 100 nM NAADP plus 1 mM BZ52 (arrow).
The Jurkat T cells were loaded with fura-2/AM and kept in the dark at room temperature until use. Glass coverslips were coated first with BSA (5 mg/ml) and subsequently with poly-L-lysine (0.1 mg/ml). Small chamber slides consisting of a rubber O-ring were sealed on thin (0.1 mm) glass coverslips by silicon grease. Then, 60 μl buffer A containing 140 mM NaCl, 5 mM KCl, 1 mM MgSO4, 1 mM CaCl2, 1 mM NaH2PO4, 5.5 mM glucose, and 20 mM HEPES (pH 7.4), and 40 μl cell suspension (2*10^6 cells/ml) suspended in the same buffer were added into the small chamber and the coverslip was mounted on the stage of a fluorescence microscope (Leica DM IRE2).
Ratiometric Ca^2+ imaging was performed as described earlier. In brief, we used an Improvision imaging system (Heidelberg, Germany) built around the Leica microscope at 100-fold magnification. Illumination at 340 and 380 nm was carried out using a monochromator system (Polychromator IV, TILL Photonics, Graefelfing, Germany). Images were taken with a gray-scale CCD camera (type C4742-95-12ER; Hamamatsu, Enfield, United Kingdom; operated in 8-bit mode). The optimal relation of spatial to temporal resolution for the ratiometric measurements was obtained using a spatial resolution of 512×640 pixel, resulting in a pixel length of 129 nm/pixel (at 100-fold magnification). […]
Ratiometric Ca^2+ imaging—The cells were loaded with fura-2/AM and kept in the dark at room temperature until use. […] The coverslip with cells slightly attached to the BSA/poly-L-lysine coating was mounted on the stage of a fluorescence microscope (Leica DM IRE2). […]

Row | SMILES | number of T cell blasts ([1]; BZ52 up to 500 μM, 48 h, non-proliferating cells) | NAADP-mediated Ca2+ signalling [2] | effect of NAADP on Ca2+ signal (peak and plateau) ([2]; co-injection of BZ52 1 mM with NAADP 100 nM) | amplification of pre-activated MBP-specific T cells ([1]; in the presence of BZ194)
1 | CCCCN(CCCC)C(=O)C[n+]1cccc(C(=O)O)c1 [BZ52, 3-Carboxy-1-dibutylcarbamoylmethyl-pyridinium] | did not much reduce | efficiently inhibited | almost completely antagonized | 
2 | CCCCCCCCNC(=O)C[n+]1cccc(C(=O)O)c1.[Br-] [BZ194, 3-Carboxy-1-Octylcarbamoylmethyl-Pyridinium] |  | efficiently inhibited |  | not influenced
